# Source: patent US20240158446A1, “CYCLIC COMPOUND HAVING SELECTIVE INHIBITORY ACTION ON KRAS OVER HRAS AND NRAS” (CHUGAI SEIYAKU KABUSHIKI KAISHA, priority 2021, published 2024)
# Where two headings read alike, the source gives them in different places. Where a SMILES comes first, the peptide text is derived from it. Bridges are numbered along the chain shown (N, C = ends). [ ]: non-standard residue; d: D form. The star is where a group is joined. hPhe(3-Cl-4-CF3) = N[C@@H](CCc1ccc(C(F)(F)F)c(Cl)c1)C(=O)O; NMeGly(cPent) = CN[C@H](C(=O)O)C1CCCC1; NMeF = CN[C@@H](Cc1ccccc1)C(=O)O; NMeD = CN[C@@H](CC(=O)O)C(=O)O; NMeL = CN[C@@H](CC(C)C)C(=O)O; Morpholide = C1CN(*)CCO1; Ac5c = NC1(C(=O)O)CCCC1; Sar = CNCC(=O)O
# Tests used:
# [1] = molecular target: GDP-bound HRAS wild-type protein (Homo sapiens, UniProt P01112); test: Binding to HRAS by surface plasmon resonance (SPR), Single Cycle Kinetics; conditions: for HRAS/KRAS (ratio of KD value for HRAS to KD value for KRAS) / HRAS/KRAS (ratio of KD value with respect to HRAS to KD value with respect to KRAS): SPR, GDP-bound HRAS wild-type protein vs GDP-bound KRAS wild-type protein
# [2] = molecular target: GDP-bound KRAS wild-type protein (Homo sapiens, UniProt P01116); test: Binding to KRAS by surface plasmon resonance (SPR), Single Cycle Kinetics; conditions: GDP-bound KRAS wild-type protein, read-out: KRAS KD
# [3] = molecular target: GDP-bound NRAS wild-type protein (Homo sapiens, UniProt P01111); test: Binding to NRAS by surface plasmon resonance (SPR), Single Cycle Kinetics; conditions: for NRAS/KRAS (ratio of KD value for NRAS to KD value for KRAS) / NRAS/KRAS (ratio of KD value with respect to NRAS to KD value with respect to KRAS): SPR, GDP-bound NRAS wild-type protein vs GDP-bound KRAS wild-type protein
# [4] = SPR, Single Cycle Kinetics, 1:1 binding model
# [5] = SPR Single Cycle Kinetics, 1:1 binding model
# Chain of GDP-bound KRAS wild-type protein (P01116 whole entry): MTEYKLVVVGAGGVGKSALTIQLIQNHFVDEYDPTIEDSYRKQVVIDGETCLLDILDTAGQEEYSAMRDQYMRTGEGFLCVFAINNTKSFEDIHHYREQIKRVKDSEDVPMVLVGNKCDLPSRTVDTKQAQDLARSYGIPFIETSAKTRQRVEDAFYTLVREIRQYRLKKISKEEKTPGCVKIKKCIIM
# Chain of GDP-bound HRAS wild-type protein (P01112 whole entry): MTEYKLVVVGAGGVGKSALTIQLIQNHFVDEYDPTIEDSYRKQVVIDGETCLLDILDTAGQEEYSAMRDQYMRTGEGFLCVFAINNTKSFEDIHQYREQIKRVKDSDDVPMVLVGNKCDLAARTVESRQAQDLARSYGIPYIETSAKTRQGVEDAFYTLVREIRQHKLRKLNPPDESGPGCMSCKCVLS
# Chain of GDP-bound NRAS wild-type protein (P01111 whole entry): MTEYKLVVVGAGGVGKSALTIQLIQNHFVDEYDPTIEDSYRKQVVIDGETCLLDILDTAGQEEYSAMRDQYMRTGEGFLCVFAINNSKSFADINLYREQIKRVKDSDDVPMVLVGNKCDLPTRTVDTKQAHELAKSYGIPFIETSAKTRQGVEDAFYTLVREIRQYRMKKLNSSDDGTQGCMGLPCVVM
"Kd ([2]; SPR, Single Cycle Kinetics) [nM]","Kd [2, 5] [nM]",SMILES,HRAS/KRAS (ratio of KD value for HRAS to KD value for KRAS) [1],NRAS/KRAS (ratio of KD value for NRAS to KD value for KRAS) [3],further results
0.35,,CCCOC[C@H]1C(=O)N[C@@H]([C@@H](C)CC)C(=O)N(C)CC(=O)N(C)[C@H]2C/C=C\CCN(C2=O)[C@@H](CC2CCC(F)(F)CC2)C(=O)N(C)CC(=O)N[C@@H](CCc2ccc(C(F)(F)F)c(OC)c2)C(=O)N2C[C@H](OCC)C[C@H]2C(=O)N(C)C2(CCC2)C(=O)N(C)[C@@H](C2CCCC2)C(=O)N(C)[C@H](C(=O)N(C)C)CC(=O)N1C [PP2350],A (a compound having 10 or more and less than 20 is denoted as A),A (a compound having 10 or more and less than 20 is denoted as A),
,,"CC[C@H](C)[C@@H]1NC(=O)[C@H](CC2CC2)N(C)C(=O)C[C@@H](C(=O)N2CCCC2)N(C)C(=O)[C@H](C2CCCC2)N(C)C(=O)C2(CCC2)NC(=O)[C@@H]2C[C@H](C)CN2C(=O)[C@H](CCc2cc(F)c(C(F)(F)F)c(F)c2)NC(=O)CN(C)C(=O)[C@H](Cc2ccc(C(F)(F)F)cc2)N2CC/C=C\C[C@@H](C2=O)N(C)C(=O)CN(C)C1=O [PP1510, (2S,8S,12S,14S,20S,23S,27S,30S,36S,38Z)-20-cyclopentyl-27-(cyclopropylmethyl)-8-[2-[3,5-difluoro-4-(trifluoromethyl)phenyl]ethyl]-4,12,19,22,26,32,35-heptamethyl-30-[(1S)-1-methylpropyl]-23-(pyrrolidine-1-carbonyl)-2-[[4-(trifluoromethyl)phenyl]methyl]spiro[1,4,7,10,16,19,22,26,29,32,35-undecazatricyclo[34.5.1.0^10,14]dotetracont-38-ene-17,1′-cyclobutane]-3,6,9,15,18,21,25,28,31,34,42-undecone]",,,"HRAS/KRAS (ratio of KD value for HRAS to KD value for KRAS) ([1]; KD ratio class): A (a compound having 10 or more and less than 20 is denoted as A); Kd [2, 4]: 0.11 nM; NRAS/KRAS (ratio of KD value for NRAS to KD value for KRAS) ([3]; KD ratio class): AA (a compound having 20 or more is denoted as AA)"
0.85,,CCO[C@@H]1C[C@H]2C(=O)NC3(CCC3)C(=O)N(C)[C@@H](C3CCCC3)C(=O)N(C)[C@H](C(=O)N(C)C)CC(=O)N(C)[C@@H](CC(C)C)C(=O)N[C@@H]([C@@H](C)CC)C(=O)N3CC[C@H]3C(=O)N(C)[C@H]3CC(C)=C(C)CN(C3=O)[C@@H](Cc3ccc(C(F)(F)F)cc3)C(=O)N(C)CC(=O)N[C@@H](CCc3cc(F)c(C(F)(F)F)c(F)c3)C(=O)N2C1 [PP1047],C (A compound having a KD ratio of 0.1 or more and less than 3 is denoted as C),C (A compound having a KD ratio of 0.1 or more and less than 3 is denoted as C),
0.67,,CCO[C@@H]1C[C@H]2C(=O)NC3(CC(C)(C)C3)C(=O)N(C)[C@@H](C(CC)CC)C(=O)N(C)[C@H](C(=O)N3CCCC3)CC(=O)N(C)[C@@H](C)C(=O)N[C@@H]([C@@H](C)CC)C(=O)N(C)CC(=O)N(C)[C@H]3C/C=C\CCN(C3=O)[C@@H](Cc3ccc(C)cc3)C(=O)N(C)CC(=O)N[C@@H](CCc3ccc(C(F)(F)F)c(Cl)c3)C(=O)N2C1 [PP2152],A (a compound having 10 or more and less than 20 is denoted as A),AA (a compound having 20 or more is denoted as AA),
0.95,,CC[C@H](C)[C@@H]1NC(=O)[C@H](COC)N(C)C(=O)C[C@@H](C(=O)N(C)C)N(C)C(=O)[C@H](C2CCCC2)N(C)C(=O)C2(CC(C)(C)C2)NC(=O)[C@@H]2C[C@@H](OC(C)C)CN2C(=O)[C@H](CCc2cc(F)c(C(F)(F)F)c(F)c2)NC(=O)CN(C)C(=O)[C@H](CC2CCCCC2)N2CC/C=C\C[C@@H](C2=O)N(C)C(=O)CN(C2CC2)C1=O [PP2511],A (a compound having 10 or more and less than 20 is denoted as A),A (a compound having 10 or more and less than 20 is denoted as A),
,29,CC[C@H](C)[C@@H]1NC(=O)[C@H](CC(C)C)N(C)C(=O)C[C@@H](C(=O)N2CCOCC2)NC(=O)[C@H](C2CCCC2)N(C)C(=O)C2(CCCC2)NC(=O)[C@@H]2CCCN2C(=O)[C@H](CCc2cc(F)c(C(F)(F)F)c(F)c2)NC(=O)CN(C)C(=O)[C@H](Cc2ccc(C(F)(F)F)cc2)N2CCCCC[C@@H](C2=O)N(C)C(=O)CN(C)C1=O [PP0479],,,HRAS/KRAS (ratio of KD value with respect to HRAS to KD value with respect to KRAS) [1]: B (a compound having 3 or more and less than 10 is denoted as B); NRAS/KRAS (ratio of KD value with respect to NRAS to KD value with respect to KRAS) [3]: B (a compound having 3 or more and less than 10 is denoted as B)
,0.55,CC[C@H](C)[C@@H]1NC(=O)[C@H](C)N(C)C(=O)C[C@@H](C(=O)N(C)C)N(C)C(=O)[C@H](C2CCCC2)N(C)C(=O)C2(CCC2)NC(=O)[C@@H]2CCCN2C(=O)[C@H](CCc2cc(F)c(C(F)(F)F)c(F)c2)NC(=O)CN(C)C(=O)[C@H](Cc2ccc(C(F)(F)F)cc2)N2CCCCC[C@@H](C2=O)N(C)C(=O)CN(C)C1=O [PP0470],,,HRAS/KRAS (ratio of KD value with respect to HRAS to KD value with respect to KRAS) [1]: B (a compound having 3 or more and less than 10 is denoted as B); NRAS/KRAS (ratio of KD value with respect to NRAS to KD value with respect to KRAS) [3]: B (a compound having 3 or more and less than 10 is denoted as B)
,,CCO[C@@H]1C[C@H]2C(=O)NC3(CCC3)C(=O)N(C)[C@@H](C3CCCC3)C(=O)N(C)[C@H](C(C)C)CC(=O)N(C)[C@@H](CC)C(=O)N[C@@H]([C@@H](C)CC)C(=O)N(C)CC(=O)N(C)[C@H]3C/C=C\CCN(C3=O)[C@@H](CC3CCCCC3)C(=O)N(C)CC(=O)N[C@@H](CCc3cc(F)c(C(F)(F)F)c(F)c3)C(=O)N2C1 [PP1601],,,"HRAS/KRAS (ratio of KD value for HRAS to KD value for KRAS) ([1]; KD ratio class): A (a compound having 10 or more and less than 20 is denoted as A); Kd [2, 4]: 2.1 nM; NRAS/KRAS (ratio of KD value for NRAS to KD value for KRAS) ([3]; KD ratio class): B (a compound having 3 or more and less than 10 is denoted as B)"
0.49,,CCO[C@@H]1C[C@H]2C(=O)NC3(CCC3)C(=O)N(C)[C@@H](C3CCCC3)C(=O)N(C)[C@H](C(=O)N(C)C)CC(=O)N(C)[C@@H](COC)C(=O)N[C@@H]([C@@H](C)CC)C(=O)N3CC[C@H]3C(=O)N(C)[C@H]3CCCCCN(C3=O)[C@@H](Cc3ccc(C(F)(F)F)cc3)C(=O)N(C)CC(=O)N[C@@H](CCc3cc(F)c(C(F)(F)F)c(F)c3)C(=O)N2C1 [PP0864],B (a compound having 3 or more and less than 10 is denoted as B),B (a compound having 3 or more and less than 10 is denoted as B),
0.056,,"CCC[C@H]1C(=O)N[C@@H]([C@@H](C)CC)C(=O)N(C)CC(=O)N(C)[C@H]2C/C=C\CCN(C2=O)[C@@H](Cc2ccc(C(F)(F)F)cc2)C(=O)N(C)CC(=O)N[C@@H](CCc2cc(F)c(C(F)(F)F)c(F)c2)C(=O)N2C[C@H](OCC)C[C@H]2C(=O)NC2(CCC2)C(=O)N(C)[C@@H](C2CCCC2)C(=O)N(C)[C@H](C(=O)N(C)C)CC(=O)N1C [PP1110, (2S,8S,12R,14S,20S,23S,27S,30S,36S,38Z)-20-cyclopentyl-8-[2-[3,5-difluoro-4-(trifluoromethyl)phenyl]ethyl]-12-ethoxy-N,N,4,19,22,26,32,35-octamethyl-30-[(1S)-1-methylpropyl]-3,6,9,15,18,21,25,28,31,34,42-undecaoxo-27-propyl-2-[[4-(trifluoromethyl)phenyl]methyl]spiro[1,4,7,10,16,19,22,26,29,32,35-undecazatricyclo[34.5.1.0^10,14]dotetracont-38-ene-17,1′-cyclobutane]-23-carboxamide]",B (a compound having 3 or more and less than 10 is denoted as B),A (a compound having 10 or more and less than 20 is denoted as A),
,0.073,CCC[C@H]1C(=O)N[C@@H]([C@@H](C)CC)C(=O)N(C)CC(=O)N(C)[C@H]2C/C=C\CCN(C2=O)[C@@H](Cc2ccc(C(F)(F)F)cc2)C(=O)N(C)CC(=O)N[C@@H](CCc2ccc(C(F)(F)F)c(Cl)c2)C(=O)N2C[C@H](OCC)C[C@H]2C(=O)NC2(CC(C)(C)C2)C(=O)N(C)[C@@H](CC(C)(C)C)C(=O)N(C)[C@H](C(=O)N(C)C)CC(=O)N1C [PP2969],,,"HRAS/KRAS (ratio of KD value with respect to GDP-bound HRAS wild-type protein to KD value with respect to KRAS) ([1]; SPR KD ratio HRAS/KRAS, class symbols): A (a compound having 10 or more and less than 20 is denoted as A); NRAS/KRAS (ratio of KD value with respect to GDP-bound NRAS wild-type protein to KD value with respect to KRAS) ([3]; SPR KD ratio NRAS/KRAS, class symbols): AA (a compound having 20 or more is denoted as AA)"
,0.17,CC[C@H](C)[C@@H]1NC(=O)[C@H](CC(C)C)N(C)C(=O)C[C@@H](C(=O)N2CCOCC2)N(C)C(=O)[C@H](C2CCCC2)N(C)C(=O)C2(CCCC2)NC(=O)[C@@H]2CCCN2C(=O)[C@H](CCc2ccc(C(F)(F)F)c(Cl)c2)NC(=O)CN(C)C(=O)[C@H](Cc2ccccc2)N(C)C(=O)CN(C)C(=O)CN(C)C1=O [PP0039] ([NMeL]I[Sar][Sar][NMeF][Sar][hPhe(3-Cl-4-CF3)]P[Ac5c][NMeGly(cPent)][NMeD]-Morpholide; lactam N-11),C (A compound having a KD ratio of 0.1 or more and less than 3 is denoted as C),C (A compound having a KD ratio of 0.1 or more and less than 3 is denoted as C),
3.4,,CCO[C@@H]1C[C@H]2C(=O)NC3(CCC3)C(=O)N(C)[C@@H](C3CCCC3)C(=O)N(CC)[C@H](C(=O)N3CCOCC3)CC(=O)N(C)[C@@H](CCOC)C(=O)N[C@@H]([C@@H](C)CC)C(=O)N(C)CC(=O)N(C)[C@H]3CCCCCN(C3=O)[C@@H](Cc3ccc(C(F)(F)F)cc3)C(=O)N(C)CC(=O)N[C@@H](CCc3cc(F)c(C(F)(F)F)c(F)c3)C(=O)N2C1 [PP0947],A (a compound having 10 or more and less than 20 is denoted as A),A (a compound having 10 or more and less than 20 is denoted as A),
